In US20140256756A1, “PIPERIDINYL-SUBSTITUTED LACTAMS AS GPR119 MODULATORS” (Array BioPharma Inc., priority 2011, published 2014):
Where a name gives a salt, the structure may show the parent alone.

Test system: modified version of the GPR119 receptor (94% identity to human receptor)
Assay: cAMP production assay (LANCE cAMP kit, TR-FRET) in HEK-293 cells
Assay type: cell-based
Conditions: for cAMP production in HEK-293 cells: HEK-293 cells stably expressing modified GPR119, test compounds 0.2 nM to 10 μM, one-hour incubation; for Fold over baseline: increase in cAMP relative to basal levels, agonist activity if 1.5-fold or greater
Experimental: The assay utilized HEK-293 cells that stably express a modified version of the GPR119 receptor (94% identity to human receptor), under the control of a CMV promoter containing a tet-on element for tetracycline-inducible expression. GPR119 agonist-induced cyclic AMP (cAMP) production was measured in this cell line using the LANCE cAMP kit (Perkin Elmer, Waltham, Mass.). To generate a working stock of cells for the assay, cells were treated overnight with 1 μg/mL doxycycline at 37° C. in the presence of 5% CO2 to induce receptor expression. Cells were then harvested by enzymatic dissociation with 0.05% trypsin, resuspended in freezing medium (DMEM growth medium with 10% each of fetal bovine serum and DMSO), aliquoted and frozen at −80° C. On the day of the assay, frozen cells were thawed, washed 1× in PBS and resuspended in Hank's buffered salt solution (HBSS) containing 5 mM HEPES, 0.1% BSA and Alexa Fluor 647-conjugated anti-cAMP antibody (diluted 1:100). The cell suspension was then transferred to a Proxiplate Plus white 384-well assay plate (Perkin-Elmer) at 2000 cells/well. Test compounds at final concentrations ranging from 0.2 nM to 10 μM were added to the assay plate, followed by a one-hour incubation at ambient temperature (volume=10 μL/well). DMSO concentration was held constant at 0.5%. After incubation with test compounds, 10 μL, of a detergent buffer containing a biotinylated cAMP/Europium-conjugated streptavidin complex (Europium-labeled cAMP tracer) were added to each well on the assay plate, followed by a 2-hour incubation at ambient temperature. During this incubation cAMP released from lysed cells competes with the Europium-labeled cAMP tracer for binding to the Alexa Fluor 647-conjugated antibody. […] Cellular cAMP levels were then determined by interpolation of raw signal data using a cAMP standard curve. Compounds were determined to have agonist activity if they stimulated a 1.5-fold or greater increase in cAMP relative to basal levels.

For `CS(=O)(=O)c1cc(F)c(OC2CCN(C3CCN(c4nc(-c5ccccc5)ns4)CC3)C2=O)cc1F` (stereo not drawn) [Example 48, 3-(2,5-difluoro-4-(methylsulfonyl)phenoxy)-1-(1-(3-phenyl-1,2,4-thiadiazol-5-yl)piperidin-4-yl)pyrrolidin-2-one trifluoroacetate], the “cAMP production in HEK-293 cells” value was 20.5 nmol and the Fold over baseline was 3.3.

For `CC(C)Cc1nsc(N2CCC(N3CCC(Oc4cc(F)c(S(C)(=O)=O)cc4F)C3=O)CC2)n1` (stereo not drawn) [Example 49, 3-(2,5-difluoro-4-(methylsulfonyl)phenoxy)-1-(1-(3-isobutyl-1,2,4-thiadiazol-5-yl)piperidin-4-yl)pyrrolidin-2-one trifluoroacetate], the “cAMP production in HEK-293 cells” value was 15.4 nmol and the Fold over baseline was 2.8.

`CC(C)c1nsc(N2CCC(N3CC[C@H](Oc4ccc(S(C)(=O)=O)cc4F)C3=O)CC2)n1` [Example 50, (S)-3-(2-fluoro-4-(methylsulfonyl)phenoxy)-1-(1-(3-isopropyl-1,2,4-thiadiazol-5-yl)piperidin-4-yl)pyrrolidin-2-one] was tested, and the “cAMP production in HEK-293 cells” value was 15.1 nmol and the Fold over baseline was 5.6.

With `CC(C)c1nsc(N2CCC(N3CC[C@@H](Oc4ccc(S(C)(=O)=O)cc4F)C3=O)CC2)n1` [Example 51, (R)-3-(2-fluoro-4-(methylsulfonyl)phenoxy)-1-(1-(3-isopropyl-1,2,4-thiadiazol-5-yl)piperidin-4-yl)pyrrolidin-2-one] the “cAMP production in HEK-293 cells” value was 33.3 nmol and the Fold over baseline was 5.9.

With `CC(C)c1nsc(N2CCC(N3CC[C@H](Oc4cc(F)c(S(C)(=O)=O)cc4F)C3=O)CC2)n1` [Example 52, (S)-3-(2,5-difluoro-4-(methylsulfonyl)phenoxy)-1-(1-(3-isopropyl-1,2,4-thiadiazol-5-yl)piperidin-4-yl)pyrrolidin-2-one] the “cAMP production in HEK-293 cells” value was 24.6 nmol and the Fold over baseline was 3.9.

`CC(C)c1nsc(N2CCC(N3CC[C@H](Oc4ccc(S(C)(=O)=O)c(F)c4)C3=O)CC2)n1` [Example 53, (S)-3-(3-fluoro-4-(methylsulfonyl)phenoxy)-1-(1-(3-isopropyl-1,2,4-thiadiazol-5-yl)piperidin-4-yl)pyrrolidin-2-one] was tested, and the “cAMP production in HEK-293 cells” value was 24.5 nmol and the Fold over baseline was 4.9.

For `CC(C)c1nsc(N2CCC(N3CC[C@H](Oc4ccc(S(C)(=O)=O)c(Cl)c4)C3=O)CC2)n1` [Example 54, (S)-3-(3-chloro-4-(methylsulfonyl)phenoxy)-1-(1-(3-isopropyl-1,2,4-thiadiazol-5-yl)piperidin-4-yl)pyrrolidin-2-one], the “cAMP production in HEK-293 cells” value was 17.2 nmol and the Fold over baseline was 3.6.

With `CN(C)c1nsc(N2CCC(N3CC[C@H](Oc4cc(F)c(S(C)(=O)=O)cc4F)C3=O)CC2)n1` [Example 55, (S)-3-(2,5-difluoro-4-(methylsulfonyl)phenoxy)-1-(1-(3-(dimethylamino)-1,2,4-thiadiazol-5-yl)piperidin-4-yl)pyrrolidin-2-one] the “cAMP production in HEK-293 cells” value was 17.2 nmol and the Fold over baseline was 3.8.

`CC(C)Cc1nsc(N2CCC(N3CC[C@H](Oc4ccc(S(C)(=O)=O)cc4F)C3=O)CC2)n1` [Example 56, (S)-3-(2-fluoro-4-(methylsulfonyl)phenoxy)-1-(1-(3-isobutyl-1,2,4-thiadiazol-5-yl)piperidin-4-yl)pyrrolidin-2-one] was tested, and the “cAMP production in HEK-293 cells” value was 17.4 nmol and the Fold over baseline was 3.4.

`Cc1cc(O[C@H]2CCN(C3CCN(c4nc(C(C)C)ns4)CC3)C2=O)c(F)cc1Br` [Example 57, (S)-3-(4-bromo-2-fluoro-5-methylphenoxy)-1-(1-(3-isopropyl-1,2,4-thiadiazol-5-yl)piperidin-4-yl)pyrrolidin-2-one] was tested, and the “cAMP production in HEK-293 cells” value was 22.0 nmol and the Fold over baseline was 2.8.

With `Cc1cc(O[C@H]2CCN(C3CCN(c4nc(C(C)C)ns4)CC3)C2=O)c(F)cc1S(C)(=O)=O` [Example 58, (S)-3-(2-fluoro-5-methyl-4-(methylsulfonyl)phenoxy)-1-(1-(3-isopropyl-1,2,4-thiadiazol-5-yl)piperidin-4-yl)pyrrolidin-2-one] the “cAMP production in HEK-293 cells” value was 48.4 nmol and the Fold over baseline was 4.9.

With `CS(=O)(=O)c1ccc(O[C@H]2CCN(C3CCN(c4nc(C5CCOCC5)ns4)CC3)C2=O)c(F)c1` [Example 59, (S)-3-(2-fluoro-4-(methylsulfonyl)phenoxy)-1-(1-(3-(tetrahydro-2H-pyran-4-yl)-1,2,4-thiadiazol-5-yl)piperidin-4-yl)pyrrolidin-2-one] the “cAMP production in HEK-293 cells” value was 28.3 nmol and the Fold over baseline was 4.2.

For `CC1(c2nsc(N3CCC(N4CC[C@H](Oc5ccc(S(C)(=O)=O)cc5F)C4=O)CC3)n2)CCOCC1` [Example 60, (S)-3-(2-fluoro-4-(methylsulfonyl)phenoxy)-1-(1-(3-(4-methyltetrahydro-2H-pyran-4-yl)-1,2,4-thiadiazol-5-yl)piperidin-4-yl)pyrrolidin-2-one], the “cAMP production in HEK-293 cells” value was 13.2 nmol and the Fold over baseline was 4.5.

For `CCS(=O)(=O)c1ccc(OC2CCN(C3CCN(c4nc(C(C)C)ns4)CC3)C2=O)c(F)c1` (stereo not drawn) [Example 61, 3-(4-(ethylsulfonyl)-2-fluorophenoxy)-1-(1-(3-isopropyl-1,2,4-thiadiazol-5-yl)piperidin-4-yl)pyrrolidin-2-one], the “cAMP production in HEK-293 cells” value was 23.5 nmol and the Fold over baseline was 3.5.

In the case of `CC(C)c1nsc(N2CCC(N3CCC(Oc4ccc(S(=O)(=O)c5ccccc5)cc4F)C3=O)CC2)n1` (stereo not drawn) [Example 62, 3-(2-Fluoro-4-(phenylsulfonyl)phenoxy)-1-(1-(3-isopropyl-1,2,4-thiadiazol-5-yl)piperidin-4-yl)pyrrolidin-2-one], the “cAMP production in HEK-293 cells” value is reported as 17.4 nmol and the Fold over baseline is reported as 2.7.

For `CC(C)c1nsc(N2CCC(N3CCC(Oc4ccc(C#N)cc4F)C3=O)CC2)n1` (stereo not drawn) [Example 63, 3-Fluoro-4-(1-(1-(3-isopropyl-1,2,4-thiadiazol-5-yl)piperidin-4-yl)-2-oxopyrrolidin-3-yloxy)benzonitrile], the “cAMP production in HEK-293 cells” value was 7.4 nmol and the Fold over baseline was 2.7.

In the case of `Cc1cc(O[C@H]2CCN(C3CCN(c4nc(C(C)C)ns4)CC3)C2=O)c(F)cc1C#N` [Example 64, (S)-5-fluoro-4-(1-(1-(3-isopropyl-1,2,4-thiadiazol-5-yl)piperidin-4-yl)-2-oxopyrrolidin-3-yloxy)-2-methylbenzonitrile], the “cAMP production in HEK-293 cells” value is reported as 30.8 nmol and the Fold over baseline is reported as 3.5.

In the case of `CC(C)c1nsc(N2CCC(N3CCC(Oc4ccc(S(C)(=O)=O)cc4)C3=O)CC2)n1` (stereo not drawn) [Example 65, -(1-(3-Isopropyl-1,2,4-thiadiazol-5-yl)piperidin-4-yl)-3-(4-(methylsulfonyl)phenoxy)pyrrolidin-2-one], the “cAMP production in HEK-293 cells” value is reported as 22.1 nmol and the Fold over baseline is reported as 4.1.

With `CCS(=O)(=O)c1ccc(OC2CCN(C3CCN(c4nc(C)ns4)CC3)C2=O)c(F)c1` (stereo not drawn) [Example 66, 3-(4-(ethylsulfonyl)-2-fluorophenoxy)-1-(1-(3-methyl-1,2,4-thiadiazol-5-yl)piperidin-4-yl)pyrrolidin-2-one] the “cAMP production in HEK-293 cells” value was 8.6 nmol and the Fold over baseline was 1.8.

`CCS(=O)(=O)c1ccc(OC2CCN(C3CCN(c4nc(-c5ccccc5)ns4)CC3)C2=O)c(F)c1` (stereo not drawn) [Example 67, 3-(4-(ethylsulfonyl)-2-fluorophenoxy)-1-(1-(3-phenyl-1,2,4-thiadiazol-5-yl)piperidin-4-yl)pyrrolidin-2-one] was tested, and the “cAMP production in HEK-293 cells” value was 14.0 nmol and the Fold over baseline was 2.3.

`CCS(=O)(=O)c1ccc(OC2CCN(C3CCN(c4nc(CC(C)C)ns4)CC3)C2=O)c(F)c1` (stereo not drawn) [Example 68, 3-(4-(ethylsulfonyl)-2-fluorophenoxy)-1-(1-(3-isobutyl-1,2,4-thiadiazol-5-yl)piperidin-4-yl)pyrrolidin-2-one] was tested, and the “cAMP production in HEK-293 cells” value was 14.5 nmol and the Fold over baseline was 3.1.

In the case of `CS(=O)(=O)c1ccc(O[C@H]2CCN(C3CCN(c4nc(Br)ns4)CC3)C2=O)c(F)c1` [Example 69, (S)-1-(1-(3-bromo-1,2,4-thiadiazol-5-yl)piperidin-4-yl)-3-(2-fluoro-4-(methylsulfonyl)phenoxy)pyrrolidin-2-one], the “cAMP production in HEK-293 cells” value is reported as 10.6 nmol and the Fold over baseline is reported as 2.1.

For `CS(=O)(=O)c1ccc(O[C@H]2CCN(C3CCN(c4nc(-c5cnco5)ns4)CC3)C2=O)c(F)c1` [Example 70, (S)-3-(2-fluoro-4-(methylsulfonyl)phenoxy)-1-(1-(3-(oxazol-5-yl)-1,2,4-thiadiazol-5-yl)piperidin-4-yl)pyrrolidin-2-one], the “cAMP production in HEK-293 cells” value was 11.4 nmol and the Fold over baseline was 3.1.

For `Cc1ncccc1-c1nsc(N2CCC(N3CC[C@H](Oc4ccc(S(C)(=O)=O)cc4F)C3=O)CC2)n1` [Example 71, (S)-3-(2-fluoro-4-(methylsulfonyl)phenoxy)-1-(1-(3-(2-methylpyridin-3-yl)-1,2,4-thiadiazol-5-yl)piperidin-4-yl)pyrrolidin-2-one], the “cAMP production in HEK-293 cells” value was 5.9 nmol and the Fold over baseline was 2.1.
